This is an account of results in ChEMBL document CHEMBL5291721, “A preclinical secondary pharmacology resource illuminates target-adverse drug reaction associations of marketed drugs” (Nat Commun, 2023).

Bounds are passed on as bounds.

Broadly, the AC50 is the midpoint of the concentration-response curve, whichever way the signal moves.

Test [1] concerns the target T1, Cholecystokinin receptor type A (Homo sapiens, UniProt P32238).
T1 sequence (P32238 whole entry): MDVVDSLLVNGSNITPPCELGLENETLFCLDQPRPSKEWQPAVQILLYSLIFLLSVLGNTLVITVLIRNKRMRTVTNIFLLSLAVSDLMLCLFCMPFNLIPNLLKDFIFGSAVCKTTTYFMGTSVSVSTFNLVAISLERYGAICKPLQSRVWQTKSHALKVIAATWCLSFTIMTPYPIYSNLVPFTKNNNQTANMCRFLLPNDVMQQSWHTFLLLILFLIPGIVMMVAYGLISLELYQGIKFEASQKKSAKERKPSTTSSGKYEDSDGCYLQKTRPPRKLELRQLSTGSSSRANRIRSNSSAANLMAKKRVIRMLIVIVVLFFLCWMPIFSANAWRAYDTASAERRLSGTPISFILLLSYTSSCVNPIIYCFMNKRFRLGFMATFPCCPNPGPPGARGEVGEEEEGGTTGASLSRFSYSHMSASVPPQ

The target of test [2] is T2, 5-hydroxytryptamine receptor 2C (Homo sapiens, UniProt P28335).
T2 sequence (P28335 whole entry): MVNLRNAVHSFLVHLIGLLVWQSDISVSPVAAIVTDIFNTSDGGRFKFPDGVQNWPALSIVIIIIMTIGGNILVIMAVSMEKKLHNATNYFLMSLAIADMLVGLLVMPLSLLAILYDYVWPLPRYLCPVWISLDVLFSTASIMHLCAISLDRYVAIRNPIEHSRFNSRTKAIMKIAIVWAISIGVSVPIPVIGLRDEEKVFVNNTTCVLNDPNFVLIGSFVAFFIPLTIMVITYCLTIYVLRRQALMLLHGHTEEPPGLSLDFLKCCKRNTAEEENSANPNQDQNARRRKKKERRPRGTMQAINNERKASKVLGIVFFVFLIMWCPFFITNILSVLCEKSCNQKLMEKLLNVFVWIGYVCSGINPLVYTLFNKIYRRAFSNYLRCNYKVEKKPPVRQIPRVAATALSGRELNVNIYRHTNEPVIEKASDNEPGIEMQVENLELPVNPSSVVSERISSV

Test [3] deals with Voltage-dependent L-type calcium channel subunit alpha-1C (Rattus norvegicus, UniProt P22002). The class given is functional.
Chain of Voltage-dependent L-type calcium channel subunit alpha-1C (P22002 whole entry): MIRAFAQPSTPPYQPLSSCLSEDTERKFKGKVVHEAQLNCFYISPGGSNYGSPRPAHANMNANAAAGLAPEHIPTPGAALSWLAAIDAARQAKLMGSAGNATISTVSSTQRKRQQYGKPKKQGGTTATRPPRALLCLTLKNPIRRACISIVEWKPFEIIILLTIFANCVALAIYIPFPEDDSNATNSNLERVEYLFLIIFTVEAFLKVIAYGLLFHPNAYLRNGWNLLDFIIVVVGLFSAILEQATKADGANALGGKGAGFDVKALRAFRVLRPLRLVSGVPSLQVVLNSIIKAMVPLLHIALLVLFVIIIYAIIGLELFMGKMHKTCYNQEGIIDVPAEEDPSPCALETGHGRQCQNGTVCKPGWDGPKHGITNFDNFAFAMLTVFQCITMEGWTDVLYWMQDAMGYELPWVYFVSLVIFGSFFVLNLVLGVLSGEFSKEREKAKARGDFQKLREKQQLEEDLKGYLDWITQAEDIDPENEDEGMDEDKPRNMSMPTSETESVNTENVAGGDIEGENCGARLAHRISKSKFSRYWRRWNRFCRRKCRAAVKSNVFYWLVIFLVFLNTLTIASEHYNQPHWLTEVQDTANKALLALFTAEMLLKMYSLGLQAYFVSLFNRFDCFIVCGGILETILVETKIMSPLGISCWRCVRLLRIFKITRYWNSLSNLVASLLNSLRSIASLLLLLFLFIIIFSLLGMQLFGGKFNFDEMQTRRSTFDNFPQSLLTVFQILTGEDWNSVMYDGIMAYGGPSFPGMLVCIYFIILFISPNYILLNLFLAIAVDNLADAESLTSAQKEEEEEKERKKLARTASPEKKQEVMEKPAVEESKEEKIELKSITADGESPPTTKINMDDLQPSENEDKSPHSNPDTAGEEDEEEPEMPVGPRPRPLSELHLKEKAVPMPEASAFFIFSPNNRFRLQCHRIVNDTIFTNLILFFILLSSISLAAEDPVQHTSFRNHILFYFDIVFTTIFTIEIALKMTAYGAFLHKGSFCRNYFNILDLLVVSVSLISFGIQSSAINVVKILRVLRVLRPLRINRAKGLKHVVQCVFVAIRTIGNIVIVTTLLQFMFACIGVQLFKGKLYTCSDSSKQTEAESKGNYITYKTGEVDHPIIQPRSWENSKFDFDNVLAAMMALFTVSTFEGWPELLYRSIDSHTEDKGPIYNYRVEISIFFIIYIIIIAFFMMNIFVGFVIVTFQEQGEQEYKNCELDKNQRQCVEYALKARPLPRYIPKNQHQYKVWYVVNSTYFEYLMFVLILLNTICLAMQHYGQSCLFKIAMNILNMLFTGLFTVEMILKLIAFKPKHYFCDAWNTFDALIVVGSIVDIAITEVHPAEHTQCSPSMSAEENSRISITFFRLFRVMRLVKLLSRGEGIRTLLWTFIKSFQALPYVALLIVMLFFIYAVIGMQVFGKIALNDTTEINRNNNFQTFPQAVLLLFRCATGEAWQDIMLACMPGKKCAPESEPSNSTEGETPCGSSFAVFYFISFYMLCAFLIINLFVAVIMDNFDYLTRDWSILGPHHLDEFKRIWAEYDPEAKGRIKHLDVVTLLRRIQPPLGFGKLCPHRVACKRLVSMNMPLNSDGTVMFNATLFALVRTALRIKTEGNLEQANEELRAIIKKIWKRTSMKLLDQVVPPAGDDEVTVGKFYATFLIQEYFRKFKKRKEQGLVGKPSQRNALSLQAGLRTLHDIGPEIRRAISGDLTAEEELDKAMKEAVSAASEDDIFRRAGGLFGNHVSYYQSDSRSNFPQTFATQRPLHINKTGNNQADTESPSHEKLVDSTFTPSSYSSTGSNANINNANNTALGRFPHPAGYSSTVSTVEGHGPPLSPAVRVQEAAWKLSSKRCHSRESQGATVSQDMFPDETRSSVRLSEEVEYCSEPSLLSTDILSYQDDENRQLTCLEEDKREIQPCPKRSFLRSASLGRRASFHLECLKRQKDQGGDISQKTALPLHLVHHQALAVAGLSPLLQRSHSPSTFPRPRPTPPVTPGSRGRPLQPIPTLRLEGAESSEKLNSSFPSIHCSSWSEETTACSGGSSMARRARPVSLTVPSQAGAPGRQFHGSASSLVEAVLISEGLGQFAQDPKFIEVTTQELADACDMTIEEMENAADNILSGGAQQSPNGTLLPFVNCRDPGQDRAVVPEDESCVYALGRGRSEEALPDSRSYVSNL
A further test deals with Cannabinoid receptor 1 (Homo sapiens, UniProt P21554). The format is functional, cell-based.
Test [4] has as its target T3, Amine oxidase [flavin-containing] A (Homo sapiens, UniProt P21397).
T3 sequence (P21397 whole entry): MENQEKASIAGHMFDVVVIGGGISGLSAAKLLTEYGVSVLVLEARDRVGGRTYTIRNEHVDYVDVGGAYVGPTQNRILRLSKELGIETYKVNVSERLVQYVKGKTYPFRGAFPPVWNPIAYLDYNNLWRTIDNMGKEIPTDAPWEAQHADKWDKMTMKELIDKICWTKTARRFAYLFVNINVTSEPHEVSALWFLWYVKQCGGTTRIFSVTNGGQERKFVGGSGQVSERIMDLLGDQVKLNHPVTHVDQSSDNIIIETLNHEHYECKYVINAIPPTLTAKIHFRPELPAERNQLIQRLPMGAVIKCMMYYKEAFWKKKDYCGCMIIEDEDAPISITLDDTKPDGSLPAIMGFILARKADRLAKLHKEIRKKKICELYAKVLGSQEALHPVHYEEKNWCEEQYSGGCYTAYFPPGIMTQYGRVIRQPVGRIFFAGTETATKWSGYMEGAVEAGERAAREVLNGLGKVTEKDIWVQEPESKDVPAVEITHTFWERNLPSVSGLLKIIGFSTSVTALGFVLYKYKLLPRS
The class given is functional.

The next test has as its target Mu-type opioid receptor (Homo sapiens, UniProt P35372). As to the kind of experiment: biochemical. The format is functional.
Test [5] has as its target Beta-1 adrenergic receptor (Homo sapiens, UniProt P08588). The class given is functional.
Test [6] addresses Sodium-dependent dopamine transporter (Homo sapiens, UniProt Q01959).
For a further test, the target named is T4, Endothelin-1 receptor (Homo sapiens, UniProt P25101).
T4 sequence (P25101 whole entry): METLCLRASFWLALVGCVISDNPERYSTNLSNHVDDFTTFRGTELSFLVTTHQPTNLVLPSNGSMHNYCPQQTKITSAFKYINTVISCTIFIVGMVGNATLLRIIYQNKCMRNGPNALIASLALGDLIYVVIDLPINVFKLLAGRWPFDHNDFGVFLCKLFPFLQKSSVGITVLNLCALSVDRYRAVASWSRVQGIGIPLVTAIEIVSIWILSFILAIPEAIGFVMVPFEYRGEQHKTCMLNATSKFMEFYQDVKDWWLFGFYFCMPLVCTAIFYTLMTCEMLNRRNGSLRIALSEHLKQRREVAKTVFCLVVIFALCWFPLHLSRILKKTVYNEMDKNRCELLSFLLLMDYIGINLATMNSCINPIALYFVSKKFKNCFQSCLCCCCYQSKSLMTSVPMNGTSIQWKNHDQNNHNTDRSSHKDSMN

Test [7] deals with Neuronal acetylcholine receptor subunit alpha-4 (Homo sapiens, UniProt P43681).
Chain of Neuronal acetylcholine receptor subunit alpha-4 (P43681 whole entry): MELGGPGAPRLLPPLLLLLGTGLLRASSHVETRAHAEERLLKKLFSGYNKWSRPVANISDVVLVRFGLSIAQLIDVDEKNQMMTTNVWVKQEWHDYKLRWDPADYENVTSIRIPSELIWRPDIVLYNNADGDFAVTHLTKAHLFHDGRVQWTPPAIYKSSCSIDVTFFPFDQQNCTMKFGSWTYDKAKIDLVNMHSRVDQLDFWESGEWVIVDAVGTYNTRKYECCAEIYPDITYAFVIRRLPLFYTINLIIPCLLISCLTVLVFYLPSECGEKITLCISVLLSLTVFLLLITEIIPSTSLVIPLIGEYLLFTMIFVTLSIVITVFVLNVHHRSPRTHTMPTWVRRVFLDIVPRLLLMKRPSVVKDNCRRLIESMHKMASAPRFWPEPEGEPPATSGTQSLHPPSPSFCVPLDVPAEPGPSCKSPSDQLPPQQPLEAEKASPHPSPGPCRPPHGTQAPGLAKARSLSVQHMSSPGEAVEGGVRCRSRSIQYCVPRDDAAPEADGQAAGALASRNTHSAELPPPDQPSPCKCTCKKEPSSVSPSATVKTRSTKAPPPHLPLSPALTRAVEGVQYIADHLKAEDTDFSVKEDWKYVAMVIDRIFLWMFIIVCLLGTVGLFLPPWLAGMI
The target of test [8] is Muscarinic acetylcholine receptor M3 (Homo sapiens, UniProt P20309).
Chain of Muscarinic acetylcholine receptor M3 (P20309 whole entry): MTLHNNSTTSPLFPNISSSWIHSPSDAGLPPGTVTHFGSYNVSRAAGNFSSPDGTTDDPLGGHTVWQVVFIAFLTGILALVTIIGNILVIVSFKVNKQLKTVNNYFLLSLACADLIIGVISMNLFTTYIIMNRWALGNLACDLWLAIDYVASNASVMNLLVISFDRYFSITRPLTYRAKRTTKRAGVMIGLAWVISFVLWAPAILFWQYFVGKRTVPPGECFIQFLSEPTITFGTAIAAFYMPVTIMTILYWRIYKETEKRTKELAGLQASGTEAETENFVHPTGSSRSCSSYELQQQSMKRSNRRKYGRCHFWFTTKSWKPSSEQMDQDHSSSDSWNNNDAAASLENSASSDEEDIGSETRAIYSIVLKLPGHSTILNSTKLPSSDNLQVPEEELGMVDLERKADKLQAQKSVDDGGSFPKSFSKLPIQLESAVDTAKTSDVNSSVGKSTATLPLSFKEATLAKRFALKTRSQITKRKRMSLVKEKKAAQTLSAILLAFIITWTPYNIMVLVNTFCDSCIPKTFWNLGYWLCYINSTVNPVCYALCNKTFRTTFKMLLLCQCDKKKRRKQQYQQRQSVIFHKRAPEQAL
Further: assay procedure not described here.

Chain of Sodium-dependent dopamine transporter (Q01959 whole entry): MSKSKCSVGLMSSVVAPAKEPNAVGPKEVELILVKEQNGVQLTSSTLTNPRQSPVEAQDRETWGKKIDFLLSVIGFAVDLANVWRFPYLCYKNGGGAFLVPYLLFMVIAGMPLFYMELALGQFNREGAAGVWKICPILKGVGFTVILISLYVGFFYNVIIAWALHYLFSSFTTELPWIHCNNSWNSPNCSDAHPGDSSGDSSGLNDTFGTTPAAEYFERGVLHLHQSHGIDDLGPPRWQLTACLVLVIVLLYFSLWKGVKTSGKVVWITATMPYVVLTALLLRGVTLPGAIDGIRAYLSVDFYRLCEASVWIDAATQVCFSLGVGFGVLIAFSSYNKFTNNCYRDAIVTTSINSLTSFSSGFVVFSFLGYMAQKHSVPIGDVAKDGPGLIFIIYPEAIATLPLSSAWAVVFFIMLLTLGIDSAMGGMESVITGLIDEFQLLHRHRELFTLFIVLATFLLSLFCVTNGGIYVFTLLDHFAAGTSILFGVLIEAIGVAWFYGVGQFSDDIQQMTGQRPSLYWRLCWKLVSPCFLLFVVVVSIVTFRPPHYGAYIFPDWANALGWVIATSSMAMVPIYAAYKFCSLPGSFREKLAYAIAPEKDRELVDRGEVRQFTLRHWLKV
Chain of Beta-1 adrenergic receptor (P08588 whole entry): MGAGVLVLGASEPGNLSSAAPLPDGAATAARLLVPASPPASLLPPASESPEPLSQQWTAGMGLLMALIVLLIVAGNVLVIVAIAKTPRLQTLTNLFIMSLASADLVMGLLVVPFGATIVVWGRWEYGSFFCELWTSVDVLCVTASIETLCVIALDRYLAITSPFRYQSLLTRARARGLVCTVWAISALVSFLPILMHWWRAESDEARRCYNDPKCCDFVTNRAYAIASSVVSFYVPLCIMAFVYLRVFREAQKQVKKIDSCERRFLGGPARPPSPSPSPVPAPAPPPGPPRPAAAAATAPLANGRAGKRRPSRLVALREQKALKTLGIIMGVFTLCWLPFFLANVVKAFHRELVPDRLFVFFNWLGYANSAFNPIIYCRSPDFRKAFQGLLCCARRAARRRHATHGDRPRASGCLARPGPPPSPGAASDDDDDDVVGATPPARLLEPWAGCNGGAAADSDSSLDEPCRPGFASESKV
Chain of Mu-type opioid receptor (P35372 whole entry): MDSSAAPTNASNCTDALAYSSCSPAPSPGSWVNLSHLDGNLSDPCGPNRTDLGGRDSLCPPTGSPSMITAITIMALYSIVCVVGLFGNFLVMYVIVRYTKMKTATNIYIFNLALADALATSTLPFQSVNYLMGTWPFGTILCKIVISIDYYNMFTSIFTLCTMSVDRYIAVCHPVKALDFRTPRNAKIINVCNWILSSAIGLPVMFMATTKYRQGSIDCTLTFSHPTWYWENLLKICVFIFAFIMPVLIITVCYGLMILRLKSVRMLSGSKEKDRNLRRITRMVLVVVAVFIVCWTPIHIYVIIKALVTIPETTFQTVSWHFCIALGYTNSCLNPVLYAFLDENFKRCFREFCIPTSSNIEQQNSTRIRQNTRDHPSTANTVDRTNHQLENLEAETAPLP

Regarding `CCCCCCCCOc1ccccc1C(=O)Nc1ccc(C(=O)OCC[N+](C)(CC)CC)cc1` [OTILONIUM BROMIDE], the AC50 is above 30 µM in test [1]; 1.1 µM in test [2]; 16 µM in test [3]; 19 µM at Cannabinoid receptor 1; above 30 µM in test [4]; above 30 µM on Mu-type opioid receptor. Further, the AC50 in [5] was 11 µM; in test [6] it was 4.4 µM; at Endothelin-1 receptor, above 1 µM; in [7], above 30 µM; in test [8] it was 1.7 µM.
Consider `Cc1c(Cl)cccc1Nc1ccccc1C(=O)O` [TOLFENAMIC ACID], for which the concentration at half-maximal activity (AC50) (in test [1]; in test [2]; in [3]; on Cannabinoid receptor 1; in test [4]; at Mu-type opioid receptor) was above 30 µM throughout. Also, the AC50 (in test [5]; in test [6]; on Endothelin-1 receptor; in [7]; in [8]) was above 30 µM throughout.
Consider `Cc1ccc(-c2nc3ccc(C)cn3c2CC(=O)N(C)C)cc1` [ZOLPIDEM], for which the AC50 (in [1]; in test [2]; in test [3]; on Cannabinoid receptor 1; in test [4]; at Mu-type opioid receptor) was above 30 µM throughout. The AC50 (in test [5]; in [6]; at Endothelin-1 receptor; in test [7]; in test [8]) was above 30 µM in each case.
Regarding TOCOFERSOLAN, the AC50 (in test [1]; in [2]; in test [3]; on Cannabinoid receptor 1; in test [4]; at Mu-type opioid receptor) was above 30 µM each time. Moreover, the AC50 (in test [5]; in test [6]; on Endothelin-1 receptor; in [7]; in [8]) was above 30 µM throughout.
